The values below come from article PMC10266451, “SKF96365 modulates activity of CatSper channels in human sperm” (Molecular Human Reproduction, 2023).

Common to all, as to type: cell-based
Assay [1] concerns the target T1, CatSper (cation channel of sperm) (Homo sapiens, UniProt Q7RTX7+Q86XQ3+Q8NEC5+Q96P56).
T1 construct: gene CATSPER1; native channel complex in capacitated donor spermatozoa; with Cation channel sperm-associated auxiliary subunit beta; Cation channel sperm-associated auxiliary subunit gamma; Cation channel sperm-associated auxiliary subunit delta; Cation channel sperm-associated auxiliary subunit epsilon; Cation channel sperm-associated auxiliary subunit zeta
Nature of the assay: fluo4 Ca2+ population fluorimetry in human sperm. The following applies: activation, capacitated intact sperm, sEBSS with BSA, whole-cell [Ca2+]i read-out attributed to CatSper.

Assay [2] concerns the target T1, CatSper (cation channel of sperm). Nature of the assay: whole-cell patch clamp of human sperm, Cs+ CatSper currents. To be noted: activation, stable; divalent-free Cs+ solutions, ramps -80 to 80 mV; direct binding to CatSper not tested. On the technique in general: Patch clamp records ionic current or voltage across a cell membrane.
Assay [3] has the same target. Described as above. To be noted: activation within 30 s, followed by secondary block; divalent-free Cs+ solutions, ramps -80 to 80 mV.

As for `CC(=O)[C@H]1CC[C@H]2[C@@H]3CCC4=CC(=O)CC[C@]4(C)[C@H]3CC[C@]12C` [progesterone], the EC50 in assay [1] (direct binding to CatSper not tested) came out at 0.032 µM. In addition, the “% current increase at 3 μM” value in assay [2] turned out to be 200%.
Consider `COc1ccc(CCCOC(Cn2ccnc2)c2ccc(OC)cc2)cc1` (stereo not shown) [SKF96365], for which, in assay [1] (mechanism distinct from progesterone), the 50% effective concentration (EC50) was 9.5 µM. For the same molecule, the “% current enhancement at 30 μM” value in assay [3] stood at 100%.

As usually defined, the EC50 is the concentration that produces a half-maximal response.
